Results on seven molecules are retold here after patent US9345682B2, “Inhibition of STAT3 signal transduction for human cancer therapy” (University of South Florida, priority 1999, dated 2016).

The subject of assay [1] is STAT3. The experiment in a line: EMSA (M67SIE probe) of STAT3 DNA-binding activity in NIH 3T3 cells expressing v-Src. Type of assay: cell-based, mouse. To be noted: v-Src-expressing NIH 3T3 cells, 6 hours. The method, then: (§1) In the case of stable NIH 3T3/v-Src/TKS3 clones, cells are treated with inhibitors or DMSO for 6 hours prior to preparing cytosolic extracts. For transient expression assays, cytosolic extracts are prepared from cells at 48 hours posttransfection as previously described (Turkson, et al., 1998, Mol. Cell. Biol. 18:2545-2552). Briefly, after two washes with PBS and equilibration for 5 min with 0.5 ml of PBS-0.5 mM EDTA, cells are scraped off the dishes and the cell pellet is obtained by centrifugation (4,500×g, 2 min, 4° C.). Cells are resuspended in 0.4 ml of low-salt HEPES buffer (10 mM HEPES [pH 7.8], 10 mM KCl, 0.1 mM EGTA, 0.1 mM EDTA, 1 mM phenylmethylsulfonyl fluoride, and 1 mM dithiothreitol) for 15 min, lysed by the addition of 20 μl of 10% Nonidet P-40 (NP-40), and centrifuged (10,000×g, 30 s, 4° C.) to obtain the cytosolic supernatant, which is used for luciferase assays (Promega) measured with a luminometer and for β-Gal activity detection by colorimetric assay at A570. As an internal control for transient transfection efficiency, results are normalized to β-Gal activity. […]

Assay [2] concerns STAT3. Description: Western blot of STAT3 serine 727 phosphorylation in Src-transformed NIH 3T3 fibroblasts. Type of assay: cell-based, mouse. The following applies: 6 hours. The method, then:
(§2) Whole-cell lysates are prepared in boiling sodium dodecyl sulfate (SDS) sample-loading buffer in order to extract total proteins from the cytoplasm and nucleus as well as preserve the in vivo phosphorylation […]. Equivalent amounts of total cellular protein are electrophoresed on an SDS-10% polyacrylamide gel and transferred to nitrocellulose membranes. Probing of nitrocellulose membranes with primary antibodies and detection of horseradish peroxidase-conjugated secondary antibodies by enhanced chemiluminescence (Amersham) are performed as previously described (Garcia, et al., 1997, Cell Growth Differ. 8:1267-1276, Turkson, et al., 1998, Mol. Cell. Biol. 18:2545-2552, Yu, et al., 1995, Science 269:81-83). Probes used are rabbit polyclonal antibodies against […] amino acid residues (626-640) of STAT3 (Santa Cruz Biotechnology), phosphoserine-727 of STAT3 (25), active (phospho-) JNK, p38^mapk or ERKs (New England Biolabs), or total JNK, p38^mapk or ERKs (Santa Cruz Biotechnology).

Assay [3] concerns NIH 3T3/v-Ras fibroblasts. The experiment in a line: Soft-agar colony formation of NIH 3T3/v-Ras fibroblasts. The format is cell-based, mouse. To be noted: treated once weekly. The method, then:
(§3) Colony formation assays are carried out in 6-well dishes. Each well contains 1.5 ml of 1% agarose in DMEM as the bottom layer. The top layer in each well consists of 1.5 ml of 0.5% agarose in DMEM containing 4,000 or 6,000 of NIH 3T3/v-Src or NIH 3T3/v-Ras fibroblasts, respectively. Treatment with inhibitors is initiated one day after seeding cells by adding 75-100 μl of medium with or without inhibitors and repeated once a week until formation of large colonies is evident. For quantitation, colonies are stained by adding 20 μl of 1 mg/ml iodonitrotetrazoliurn violet to each well and incubating at 37° C. overnight. Stained colonies are counted the next day.

Assay [4] deals with NIH 3T3/v-Src fibroblasts. Description: Soft-agar colony formation of NIH 3T3/v-Src fibroblasts. The format is cell-based, mouse. To be noted: treated once weekly. How it is done: as §3
The subject of the next assay is p38, JNK1/2, ERK1/2. The experiment in a line: Western blot of phosphorylated (activated) MAPKs in Src-transformed fibroblasts. Type of assay: cell-based, mouse. How it is done:
as §2

For assay [5], the system named is STAT3. The experiment in a line: STAT3-specific luciferase reporter (pLucTKS3) induced by v-Src in NIH 3T3 fibroblasts. Type of assay: cell-based, mouse. The following applies: for constitutive induction of the STAT3-dependent luciferase reporter: NIH 3T3/v-Src/TKS3 cells stably expressing reporter, 6 hours; for STAT3-specific luciferase reporter induction by v-Src: transiently transfected NIH 3T3 cells, inhibitor for 6 h. How it is done:
NIH 3T3, NIH 3T3/v-Src and NIH 3T3/v-Ras fibroblasts are grown in Dulbecco's modified Eagle's medium (DMEM) containing 5% iron-supplemented bovine calf serum (BCS). Transient transfections are carried out by the standard calcium phosphate method as previously described (Turkson, et al., 1998, Mol. Cell. Biol. 18:2545-2552). NIH 3T3 fibroblasts are seeded at 5×10^5 cells/100-mm plate in DMEM plus 5% BCS at 18 to 24 hours prior to transfection. Total DNA for transfections is typically 20 μg per plate, including 4 μg of luciferase reporter construct (pLucTKS3), 0.2 μg of β-galactosidase (β-Gal) internal control vector, and the amounts of expression vector indicated in figure legends. Transfection is terminated 15 hours later by aspirating the medium, washing the cells with phosphate-buffered saline (PBS), and adding fresh DMEM. For generation of NIH 3T3/v-Src/TKS3 cell lines stably expressing the STAT3 reporter, NIH 3T3/v-Src cells are transfected using Fugene 6 (Boehringer Mannheim) according to the supplier's protocol. The transfection mixture contains 5.5 μg total DNA per 10 cm plate, including […] of the STAT3 reporter, pLucTKS3, and 0.5 μg of pcDNA3 that carries the neomycin resistance gene. Individual G418-resistant clones are picked and characterized with regard to STAT3-dependent luciferase activities.
as §1, with “activity. For EMSA, nuclear extracts are prepared from transiently-transfected NIH 3T3 cells and volumes containing equal amounts of total protein are incubated with ^32P-labeled M67SIE oligonucleotide probe, as previously reported (Garcia, et al., 1997, Cell Growth Differ. 8:1267-1276, Yu, et al., 1995, Science 269:81-83).” for “activity.”
(In a reporter assay the amount or activity of a reporter protein is the signal.)

Assay [6] concerns STAT3. The experiment in a line: EMSA of constitutive STAT3 DNA-binding activity in MDA-MB-468 breast carcinoma cells. Type of assay: cell-based, human. To be noted: MDA-MB-468 cells; dose-dependent. How it is done:
(§4) FIG. 6: Src and JAK Inhibitors Block Growth and STAT3 Activation in Breast Carcinoma Cells. MDA-MD-468 cells are treated with inhibitors of EGF receptor (PD158780), Src (PD180970), or JAKs (AG490), and effects on cell growth (Panel A) and STAT3 DNA-binding activity (Panel B) are determined.
STAT DNA-binding activity in human breast cancer cell lines is examined by electrophoretic mobility shift assays (EMSA) (Garcia et al., 1997, Cell Growth Diff. 8:1267-1276). In these experiments, EMSAs are performed using the ^32P-labeled sis-inducible element (SIE) as a probe to detect STAT DNA-binding activity in nuclear extracts of cells. This synthetic DNA oligonucleotide probe is a high-affinity mutant of the c-fos SIE, called hSIE, that binds both STAT1 and STAT3 (Yu, et al., 1995, Science 269:81-83). […] This activation is constitutive and occurs in the absence of exogenous EGF stimulation. By contrast, STAT3 activation is not detected in any of the three cell lines derived from normal breast tissue.
(§5) The involvement of these, and other, tyrosine kinases in STAT3 activation is tested using specific inhibitors of JAK family kinases, and the EGF receptor and Src family kinases.
(A gel shift assay detects complexes by their altered migration in electrophoresis.)

A further assay deals with MDA-MB-468 cells. Description: Cell growth of MDA-MB-468 breast carcinoma cells. The format is cell-based, human. The method, then: as §4, §5
The target in the next assay is T1, SH2 Domain of STAT3 (Homo sapiens, UniProt P40763).
T1 construct: the SH2 domain of STAT3 is isolated as a target for screening 7-mer peptide phage display libraries; GST; made in house; host or cells: bacteria (E. coli)
The experiment in a line: Phage display panning, 7-mer peptide library, on the SH2 domain of STAT3. Type of assay: binding. An excerpt:
Phage display peptide libraries are used because of two powerful features. First, phage libraries generate an enormous diversity of peptides that can be subjected to affinity selection by panning. […] These combinatorial libraries are based on random short peptide sequences fused to a coat protein of bacteriophage, herein pIII of the filamentous coliphage MI3. Panning of the peptide library using an immobilized target, herein STAT3 fusion proteins bound onto beads, is used to select for peptide sequences that bind to STAT3. […] Peptide sequences that occur at elevated frequencies are good candidates for ST4T3-specific binding peptides. […] These cyclic peptides have the advantage of reducing entropic freedom, thereby potentially increasing binding specificity and affinity relative to linear peptides. Another variation on this approach is to combine “affinity maturation” with the phage display peptide library [Scott & Smith, 1990, Science, 249:386-390].
For panning phage with the STAT3 fusion protein, 50 ul of glutathione-Sepharose beads bound to purified GST-Stat3 fusion protein are washed with phosphate buffered saline (PBS). The beads are then incubated with 10 ul of phage suspension (1.4×10^11 virions) in 200 ul final volume of PBS for 30 min at room temperature with occasional mixing. The beads are gently pelleted in a microcentrifuge, and washed 10 times with 1 ml of PBS to remove unbound phage. Background of non-specifically bound phage is reduced by a variety of methods, including pre-blocking the beads with bovine serum albumin, pre-clearing the phage library with GST-glutathione-Sepharose beads, and washing the beads with increasing salt concentrations. Bound phage virions are eluted from the beads by incubation with a molar excess of glutathione for 30 min at room temperature. A small aliquot of the phage eluate is titered and the rest is amplified on the E. coli ER2537 host strain. Following amplification, the phage are purified by polyethylene glycol (PEG) precipitation and then the titer is determined again. […]

T1 sequence (P40763 580-670 limits assumed): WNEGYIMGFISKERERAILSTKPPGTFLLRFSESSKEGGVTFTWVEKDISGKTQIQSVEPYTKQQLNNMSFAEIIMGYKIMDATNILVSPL

As for `COc1cccc(-c2cc(=O)c3ccccc3o2)c1N` [PD98059], the “STAT3 DNA-binding activity induced by v-Src” value in the assay on STAT3 [1] was “no effect”. The “STAT3 serine phosphorylation (phosphoserine-727)” value with STAT3 [2] is given as “blocks”. Besides, in [3], the “colony formation of Ras-transformed fibroblasts in soft agar” value is given as “lack of significant effect”. The “colony formation of Src-transformed cells in soft agar” value in [4] is reported as “lack of significant effect”. Moreover, in the assay on p38, JNK1/2, ERK1/2 (Src-transformed fibroblasts), the “basal ERKs activity” value is listed as “complete block”. For the same molecule, in the assay with STAT3 [5], the “constitutive induction of the STAT3-dependent luciferase reporter” value is reported as “partially” and the “STAT3-specific luciferase reporter induction by v-Src” value was “significantly suppresses”.
As to `CNc1cc2c(Nc3cccc(Br)c3)ncnc2cn1` [PD158780], the “constitutive STAT3 activation (STAT3 DNA-binding activity)” value with STAT3 [6] was “does not block”. Besides, the cell growth result in the assay with MDA-MB-468 cells is on record as “not by the EGF receptor inhibitor”.
Taken in the same sequence, the figures for `Cc1cc(Nc2ncc3cc(-c4c(Cl)cccc4Cl)c(=O)n(C)c3n2)ccc1F` [PD180970] were “effectively blocked” and “inhibition of cell growth”.
As for `Oc1ccc(-c2nc(-c3ccncc3)c(-c3ccc(F)cc3)[nH]2)cc1` [SB202190], the “STAT3 DNA-binding activity induced by v-Src” value with STAT3 [1] was “no effect”. Besides, the “STAT3 serine phosphorylation (phosphoserine-727)” value with STAT3 [2] is given as “blocks”. Moreover, the “colony formation of Ras-transformed fibroblasts in soft agar” value in assay [3] is on record as “no significant effects”. Moreover, the “colony formation of Src-transformed cells in soft agar” value in [4] is given as “completely blocks”. For the same molecule, the “phosphorylation of MAPK members, including p38” value with p38, JNK1/2, ERK1/2 (Src-transformed cells) is “does not significantly alter”. In the assay with STAT3 [5], the “constitutive induction of the STAT3-dependent luciferase reporter” value is “completely” and the “STAT3-specific luciferase reporter induction by v-Src” value is on record as “significant inhibition”.
As for ASTLPKA (listed as Homo sapiens), the “Frequency (out of 100 clones)” value in the assay with SH2 Domain of STAT3 is recorded as 7%.
Same read-out and setting: the result for HAIYPRN (listed as Homo sapiens) reads 16%; that for IQSPHFF (listed as Homo sapiens), 6%.
